Measured values as given in patent publication US9796659B2, “Derivatives of polyhydroxy compounds” (RATIOPHARM GMBH, priority 2014, dated 2017).
Where a name gives a salt, the structure may show the parent alone.

How the values were obtained:
[1] = in vitro; settings: human; for recovery at 90 min, 250 μM / recovery at 90 min: Caco-2, Recovery [%] mean ± s.d.
Method: (§1) The membrane permeability was investigated in Caco-2 monolayers. DMF was investigated in a separate experiment for comparison.
(§2) […] The test concentration in the apical medium was 250 μM. […] Furthermore, a significant metabolism or degradation of the test compound was expected and therefore the parent compound as well as MMF was determined in the acceptor compartment (basolateral medium). Sampling time points were 15, 45 and 90 min.

[2] = system: Caco-2 monolayers; assay: in vitro; settings: for permeability category compared to the reference molecules: Caco-2
Method: as §1, §2

[3] = system: MOG35-55-induced experimental autoimmune encephalomyelitis (EAE); assay: MOG35-55-induced experimental autoimmune encephalomyelitis (EAE) in the mouse; type: in vivo, male C57BL/6 mice; settings: prophylactic treatment from day 1; observations day 1 to 13; dose formulation 11.54 mM, 10 ml/kg
Method: The pharmacological efficacy was investigated in experimental autoimmune encephalomyelitis (EAE) in the mouse.
The experiments were performed as follows: male C57BL/6 mice, 12 weeks old, 10 animals per treatment group, were used. On day 1, animals were immunized by sub-cutaneous injection of MOG35-55, which was mixed in complete Freund's adjuvants. On the same day as well as on day 3 the animals received a sub-cutaneous injection of Pertussis-toxin.
Assessment and comparison of the efficacy of compounds of the invention and DMF (reference) in MOG35-55-induced experimental autoimmune encephalomyelitis (EAE) in C57BL/6 mice. • Test system: male C57BL/6 mice, 12 weeks old; 10 animals per treatment group; • Induction of EAE: Day 1—subcutaneous injection of MOG35-55, suspended in complete Freund's adjuvants and intraperitoneal injection of pertussis toxin. • Day 3—intraperitoneal injection of pertussis toxin. • Treatment: Dimethylfumarate and test substances or vehicle only were administered via oral and intravenous route. For oral administration, test substances were dissolved or suspended in 0.5% hydroxyethylcellulose (dissolved in 50 mM potassium dihydrogenphosphate, pH 5.0). […]

[4] = In vivo pharmacokinetics of MMF after p.o. administration; design: species or system female NMRI mice; settings: female, NMRI, mouse, po, 49.4 mg/kg
Method: The pharmacokinetics of MMF after administration of Example 7 and DMF for comparison was investigated in female NMRI mice (3 animals per group). The test compound was dissolved in DMSO/PEG300 (20/80) and administered p.o. (gavage) at a dose volume of 10 ml/kg. DMF was given at a dose of 45 mg/kg. The test compound was dosed at a MMF-equivalent dose, i.e. 49.4 mg/kg. Blood samples were taken at 0.25, 0.5, 1.0, 2.0, 4.0, 6.0 and 8.0 h after drug administration.
Pharmacokinetic parameters, derived by non-compartmental analysis for test compound

[5] = Caco-2, Papp × 10^−6 [cm/sec] mean ± s.d.

With COC(=O)/C=C/C(=O)OC [DMF, Dimethyl fumarate] the Papp A→B at 90 min, 250 μM [1, 5] was 1.8 ± 0.2 ×10⁻⁶ cm/s, the recovery at 90 min, 250 μM [1] was 11.6% and the “permeability category compared to the reference molecules” value [2] was “moderate permeability”. For the same compound, the body weight [3] was “remained stable” and the “clinical symptoms (clinical score, grade 0-10)” value [3] was “protected from the development of clinical symptoms”.

With CC[C@H]1OC(=O)[C@H](C)[C@@H](O[C@H]2C[C@@](C)(OC)[C@@H](O)[C@H](C)O2)[C@H](C)[C@@H](O[C@@H]2O[C@H](C)C[C@H](N(C)C)[C@H]2O)[C@](C)(O)C[C@@H](C)C(=O)[C@H](C)[C@@H](O)[C@]1(C)O [Erythromycin, erythromycin] the efflux ratio at 90 min ([1]; Caco-2, Efflux ratio (b-a/a-b)) was 55.9, the Papp A→B at 90 min, 250 μM [1, 5] was 0.2 ± 0.02 ×10⁻⁶ cm/s and the Papp B→A at 90 min [1, 5] was 12.3 ± 0.4 ×10⁻⁶ cm/s. For the same compound, the recovery at 90 min [1] was 99.9 ± 2.4%, the recovery at 90 min, 250 μM [1] was 108 ± 2.2% and the “Efflux ratio (b-a/a-b)” value ([2]; human, Caco-2, 90 min) was 100.8. For the same compound, the “Papp × 10^−6 [cm/sec] mean ± s.d.” value ([2]; human, Caco-2, 90 min) was 11.5 ± 0.5 10^−6 cm/sec, the “Recovery [%] mean ± s.d.” value ([2]; human, Caco-2, 90 min) was 89.1 ± 8.5% and the “Papp × 10^−6 [cm/sec] mean ± s.d.” value ([2]; human, Caco-2, 90 min, 250 μM) was 0.1 ± 0.2 10^−6 cm/sec. The “Recovery [%] mean ± s.d.” value ([2]; human, Caco-2, 90 min, 250 μM) was 91.0 ± 1.9%.

With COC(=O)/C=C/C(=O)OCC(O)COC(=O)/C=C/C(=O)OC [Example 7, (E)-But-2-enedioic acid 2-hydroxy-3-((E)-3-methoxycarbonyl-acryloyloxy)-propyl ester methyl ester] the “Tmax of MMF” value [4] was 15 min, the Papp A→B at 90 min, 250 μM [1, 5] was 2.5 ± 0.2 ×10⁻⁶ cm/s and the recovery at 90 min, 250 μM [1] was 18.3%. For the same compound, the “permeability category compared to the reference molecules” value [2] was “moderate permeability”.

In the case of C[C@]12CC[C@H]3[C@@H](CCC4=CC(=O)CC[C@@]43C)[C@@H]1CC[C@@H]2O [Testosterone, testosterone], the recovery at 90 min, 250 μM ([1]; direction a-b) is reported as 67.3 ± 1.2%, the recovery at 90 min ([1]; direction b-a) is reported as 94.9 ± 0.9% and the “Recovery [%] mean ± s.d.” value ([2]; direction a-b) is reported as 62.5 ± 2.1%. The “Recovery [%] mean ± s.d.” value ([2]; direction b-a) was 76.1 ± 4.5%.
